{"source": "paper PMC5226424", "about": "(Biochemistry, 2016)", "molecular_target": "T1, carboxyltransferase from S. aureus (SaCT) (Staphylococcus aureus, UniProt Q2FXM7+Q5HF73)", "T1 sequence (Q2FXM7 1-314)": "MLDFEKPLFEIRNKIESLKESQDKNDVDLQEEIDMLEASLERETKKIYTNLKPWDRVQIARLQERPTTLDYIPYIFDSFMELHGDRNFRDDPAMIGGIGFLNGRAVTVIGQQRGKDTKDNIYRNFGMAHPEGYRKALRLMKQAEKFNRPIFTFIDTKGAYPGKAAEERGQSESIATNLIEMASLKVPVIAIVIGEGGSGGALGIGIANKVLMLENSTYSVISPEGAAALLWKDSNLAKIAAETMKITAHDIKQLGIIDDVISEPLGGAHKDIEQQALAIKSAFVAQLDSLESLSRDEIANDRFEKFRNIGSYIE", "T1 sequence (Q5HF73 1-285)": "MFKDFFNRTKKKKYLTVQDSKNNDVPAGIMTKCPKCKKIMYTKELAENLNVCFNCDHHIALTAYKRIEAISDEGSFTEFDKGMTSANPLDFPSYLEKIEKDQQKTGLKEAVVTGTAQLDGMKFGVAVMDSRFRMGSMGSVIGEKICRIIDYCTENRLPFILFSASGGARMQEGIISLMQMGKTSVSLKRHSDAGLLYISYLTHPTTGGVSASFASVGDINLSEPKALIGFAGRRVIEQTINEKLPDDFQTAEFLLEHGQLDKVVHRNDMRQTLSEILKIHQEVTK", "experiment": "coupled citrate synthase / malate dehydrogenase assay at […] nm, reverse direction", "assay_type": "biochemical", "settings": "150 μM malonyl-CoA, 6 mM biocytin, pH 8.0"}
{"smiles": "C[C@H]1CC(=O)NC1=O", "note": "[compound 4, (3S)-Methyl-pyrrolidine-2,5-dione]", "values": [{"measurement": "% decrease in activity at 50 nM", "result": 65, "unit": "%"}]}
